Measured values published in US4355024A, “Method and feed for stimulating the growth of animals” (priority 1979, dated 1982).
“And” between values parts separate entries of the source, which are not always exact repeats. Equal values may be shown once. Peptide text beside a SMILES is read from it.

Assay: Growth stimulation in rats fed chow containing the additive (body weight over 15 days)
Type: in vivo, Wistar strain rats
Settings: 0.25% wt/wt in feed; for Mean Body Weight, experimental animals: 10 male Wistar rats; for Body Weight of Animals (individual experimental animals): male Wistar rats
Protocol: Two groups of 10 Wistar strain rats each, all males to avoid estrus cyclical changes in the 15-day experimental period, were kept in two separate stock cages in an animal room maintained at 25° C. with an automatic 12-hour light-12-hour-dark cycle. Dry standard laboratory chow pellets were made up into a wet mash by adding a 1:1 mixture of water (wt/wt), which then was compressed by hand into balls weighing approximately 20 grams each. To each 20 g ball made for the experimental group, 50 mg of the methyl ester of L-aspartyl-L-phenylalanine was added, which represents a 0.25% wt/wt admixture. More than adequate food was made freely available to the animals at all times and drinking water was made available ad libitum. All individual rats were numbered by a colored stripe system marked on the tail. The animals were weighed on a balance to an accuracy of 1 gram at the start of the experiment (3 days after arrival in the cages to allow them to adjust to their new environment). They were then weighed again after 2, 4, 6, 8, 10, 12 and 14 days from the start of the new diet (i.e., days 3, 5, 7, 9, 11, 13 and 15 of the experiment). The rates of growth of the control and experimental animals is summarized in tabular form below: […]

[1] = Day 1 (start of diet, baseline)

SMILES: COC(=O)[C@H](Cc1ccccc1)NC(=O)[C@@H](N)CC(=O)O [methyl ester of L-aspartyl-L-phenylalanine] (H-Asp-Phe-OMe)
- Mean Body Weight, experimental animals [1]: 102.6 grams
- Mean Body Weight, experimental animals (Day 3): 117.8 grams
- Mean Body Weight, experimental animals (Day 5): 133.4 grams
- Mean Body Weight, experimental animals (Day 7): 149.8 grams
- Mean Body Weight, experimental animals (Day 9): 166.8 grams
- Mean Body Weight, experimental animals (Day 11): 183.1 grams
- Mean Body Weight, experimental animals (Day 13): 199.9 grams
- Mean Body Weight, experimental animals (Day 15): 215.9 grams
- Body Weight of Animals (individual experimental animals) [1]: 94 grams and 105 grams and 96 grams and 110 grams and 102 grams and 98 grams and 104 grams and 95 grams and 114 grams and 108 grams
- Body Weight of Animals (individual experimental animals) (Day 3): 112 grams and 119 grams and 110 grams and 128 grams and 120 grams and 109 grams and 129 grams
- Body Weight of Animals (individual experimental animals) (Day 5): 130 grams and 135 grams and 126 grams and 145 grams and 134 grams and 127 grams and 124 grams
- Body Weight of Animals (individual experimental animals) (Day 7): 148 grams and 153 grams and 143 grams and 161 grams and 150 grams and 149 grams and 140 grams and 162 grams
- Body Weight of Animals (individual experimental animals) (Day 9): 169 grams and 160 grams and 161 grams and 178 grams and 166 grams and 158 grams and 165 grams and 155 grams and 180 grams
- Body Weight of Animals (individual experimental animals) (Day 11): 184 grams and 188 grams and 180 grams and 193 grams and 183 grams and 172 grams and 181 grams and 169 grams and 197 grams
- Body Weight of Animals (individual experimental animals) (Day 13): 203 grams and 204 grams and 195 grams and 209 grams and 202 grams and 186 grams and 200 grams and 184 grams and 213 grams
- Body Weight of Animals (individual experimental animals) (Day 15): 220 grams and 223 grams and 211 grams and 226 grams and 217 grams and 201 grams and 215 grams and 198 grams and 227 grams and 221 grams
- mean body weight of the experimental group higher than the mean body weight of the control group (rats, after 2 weeks): about 34%
- increase in body weight versus control (in words) (rats, beginning with the seventh day of the experiment): significant increases in body weight
